Measurements: US20250333397A1 (REMIX THERAPEUTICS INC., priority 2021, published 2025)
Like-named read-outs stand apart in the source and are kept apart here.

Experiments:
Format in all cases: cell-based, human
MYB mRNA = test: RT-qPCR splicing assay, MYB canonical (CJ) and alternative (AJ) junction mRNA; details: for AC50: read-out: MYB AJ (AC50, increase in AJ mRNA)
Protocol: (§1) Compounds described herein were used to modulate RNA transcript abundance in cells. The expression of a target mRNA was measured by detecting the formation of an exon-exon junction in the canonical transcript (CJ). A compound mediated exon-inclusion event was detected by observing an increase in formation of a new junction with an alternative exon (AJ). Real-time qPCR assays were used to detect these splicing switches and interrogate the potency of various compounds towards different target genes. A high-throughput real time quantitative PCR (RT-qPCR) assay was developed to measure these two isoforms of the mRNA (CJ and AJ) for exemplary genes, such as HTT, SMN2, and MYB, together with a control housekeeping gene, GAPDH or GUSB or PPIA, used for normalization. Briefly, the A673 or K562 cell line was treated with various compounds described herein (e.g., compounds of Formula (I), (II), (III), (IV)). After treatment, the levels of the HTT, MYB, or SMN2 mRNA targets were determined from each sample of cell lysate by cDNA synthesis followed by qPCR.
(§2) The A673 cell line was cultured in DMEM with 10% FBS. Cells were diluted with full growth media and plated in a 96-well plate (15,000 cells in 100ul media per well). The plate was incubated at 37° C. with 5% CO2 for 24 hours to allow cells to adhere. An 11-point 3-fold serial dilution of the compounds was made in DMSO then diluted in media in an intermediate plate. Compounds were transferred from the intermediate plate to the cell plate with the top dose at a final concentration of 10 uM in the well. Final DMSO concentration was kept at or below 0.25%. The cell plate was returned to the incubator at 37° C. with 5% CO2 for an additional 24 hours.
(§3) The K562 cell line was cultured in IMDM with 10% FBS. For K562, cells were diluted with full growth media and plated in either a 96-well plate (50,000 cells in 50 uL media per well) or a 384-well plate (8,000-40,000 cells in 45 uL media per well). An 11-point 3-fold serial dilution of the compounds were made in DMSO then diluted in media in an intermediate plate.
(§4) Compound was transferred from the intermediate plate to the cell plate with the top dose at a final concentration of 10 uM in the well. Final DMSO concentration was kept at or below 0.25%.
(§5) Final volume was 100 uL for 96-well plate and 50 uL for 384-well plate. The cell plate was then placed in an incubator at 37° C. with 5% CO2 for 24 hours.
(§6) The cells were then gently washed with 50 uL-100 uL cold PBS before proceeding to addition of lysis buffer. 30 uL-50 μL of room temperature lysis buffer with DNAse I (and optionally RNAsin) was added to each well. Cells were shaken/mixed thoroughly at room temperature for 5-10 minutes for lysis to take place and then 3 uL-5 μL of room temperature stop solution was added and wells were shaken/mixed again. After 2-5 minutes, the cell lysate plate was transferred to ice for RT-qPCR reaction setup. The lysates could also be frozen at −80° C. for later use.
(§7) In some cases, a direct lysis buffer was used. An appropriate volume of 3× lysis buffer (10 mM Tris, 150 mM NaCl, 1.5%-2.5% Igepal and 0.1-1 U/uL RNAsin, pH 7.4) was directly added to either K562 or A673 cells in media and mixed by pipetting 3 times. The plates were then incubated at room temperature with shaking/rocking for 20-50 minutes to allow for lysis to take place. After this time, the cell lysate plate was transferred to ice to set up for the RT-qPCR reactions. The lysates could also be frozen at −80° C. for later use.
(§8) To set up 10 uL RT-qPCR reactions, cell lysates were transferred to 384-well qPCR plates containing the master mix according to the table below. The plates were sealed, gently vortexed, and spun down before the run. The volumes were adjusted accordingly in some instances where the reaction was carried in 20 μL. The table below summarizes the components of the RT-qPCR reactions: […]

Target C mRNA = test: RT-qPCR splicing assay panel, Target C canonical junction (CJ) mRNA; details: canonical junction (CJ) mRNA, RT-qPCR panel, Table 4A, read-out: Target C, decrease in CJ mRNA levels, IC50
Protocol: as §1, §2, §3, §4, §5, §6, §7, §8

HTT mRNA = test: RT-qPCR splicing assay, HTT canonical (CJ) and alternative (AJ) junction mRNA; details: for AC50: read-out: HTT AJ (AC50, increase in AJ mRNA)
Protocol: as §1, §2, §3, §4, §5, §6, §7, §8

SMN2 mRNA = test: RT-qPCR splicing assay panel, SMN2 canonical junction (CJ) mRNA; details: canonical junction (CJ) mRNA, RT-qPCR panel, Table 4A, read-out: SMN2, decrease in CJ mRNA levels, IC50
Protocol: as §1, §2, §3, §4, §5, §6, §7, §8

[1] = Homo sapiens, 24 h, Table 3A, A673 or K562 cells, 24 h treatment
[2] = Homo sapiens, 24 h, Table 3A, A673 or K562 cells, 24 h treatment, read-out: MYB CJ (IC50, decrease in CJ mRNA)
[3] = Homo sapiens, canonical junction (CJ) mRNA, RT-qPCR panel, Table 4A, read-out: MYB, decrease in CJ mRNA levels, IC50
[4] = Homo sapiens, 24 h, Table 3A, A673 or K562 cells, 24 h treatment, read-out: HTT CJ (IC50, decrease in CJ mRNA)
[5] = Homo sapiens, canonical junction (CJ) mRNA, RT-qPCR panel, Table 4A, read-out: HTT, decrease in CJ mRNA levels, IC50
[6] = Table 3A, A673 or K562 cells, 24 h treatment
[7] = Table 3A, A673 or K562 cells, 24 h treatment, read-out: MYB CJ (IC50, decrease in CJ mRNA)
[8] = canonical junction (CJ) mRNA, RT-qPCR panel, Table 4A, read-out: MYB, decrease in CJ mRNA levels, IC50
[9] = Table 3A, A673 or K562 cells, 24 h treatment, read-out: HTT CJ (IC50, decrease in CJ mRNA)
[10] = canonical junction (CJ) mRNA, RT-qPCR panel, Table 4A, read-out: HTT, decrease in CJ mRNA levels, IC50

Row | SMILES | IC50 (MYB mRNA; [2]) [nM] | IC50 (MYB mRNA; [3]) [nM] | IC50 (Target C mRNA; Homo sapiens) [nM] | IC50 (HTT mRNA; [4]) [nM] | IC50 (HTT mRNA; [5]) [nM] | IC50 (SMN2 mRNA; Homo sapiens) [nM] | IC50 (MYB mRNA; [7]) [nM] | IC50 (MYB mRNA; [8]) [nM] | IC50 (Target C mRNA) [nM] | IC50 (HTT mRNA; [9]) [nM] | IC50 (HTT mRNA; [10]) [nM] | IC50 (SMN2 mRNA) [nM] | AC50 (MYB mRNA; [1]) [nM] | AC50 (HTT mRNA; [1]) [nM] | AC50 (MYB mRNA; [6]) [nM] | AC50 (HTT mRNA; [6]) [nM]
1 | Oc1cc(-c2cn[nH]c2)c(F)cc1-c1ccc(N2CCC(NC3CC3)C2)nn1 (stereo in doubt) [Compound 105, 2-{6-[(3R)-3-(cyclopropylamino)pyrrolidin-1-yl]pyridazin-3-yl}-4-fluoro-5-(1H-pyrazol-4-yl)phenol] | 100 to 1000 | 100 to 1000 | < 100 | < 100 | < 100 | < 100 |  |  |  |  |  |  | 100 to 1000 | < 100 |  | 
2 | CN(C1CCN(c2ccc(-c3cc(F)c(-c4cn[nH]c4)cc3O)nn2)C1)C(C)(C)C (stereo in doubt) [Compound 119, 2-{6-[(3S)-3-[tert-butyl(methyl)amino]pyrrolidin-1-yl]pyridazin-3-yl}-4-fluoro-5-(1H-pyrazol-4-yl)phenol] | < 100 | < 100 | < 100 | < 100 | < 100 | < 100 |  |  |  |  |  |  | < 100 | < 100 |  | 
3 | COc1cc(-c2ccc(-c3ccc(N4CCC(CNC5CCC5)C4)nn3)c(O)c2)cnn1 (stereo in doubt) [Compound 441, 2-{6-[(3S)-3-[(cyclobutylamino)methyl]pyrrolidin-1-yl]pyridazin-3-yl}-5-(6-methoxypyridazin-4-yl)phenol] | 100 to 1000 | 100 to 1000 | 100 to 1000 | 100 to 1000 | 100 to 1000 | < 100 |  |  |  |  |  |  | 100 to 1000 | 100 to 1000 |  | 
4 | Oc1cc(-c2cn[nH]c2)ccc1-c1ccc(N2CCC(NC3CC3)C2)nn1 (stereo not drawn) [Compound 100, 2-(6-(3-(cyclopropylamino)pyrrolidin-1-yl)pyridazin-3-yl)-5-(1H-pyrazol-4-yl)phenol] |  |  |  |  |  |  | 100 to 1000 | 100 to 1000 | < 100 | < 100 | < 100 | < 100 |  |  | 100 to 1000 | < 100
5 | Oc1cc(-c2cn[nH]c2)ccc1-c1ccc(N2CC[C@H](NC3CC3)C2)nn1 [Compound 104, 2-{6-[(3S)-3-(cyclopropylamino)pyrrolidin-1-yl]pyridazin-3-yl}-5-(1H-pyrazol-4-yl)phenol; ethane] | 100 to 1000 | 100 to 1000 | 100 to 1000 | < 100 | < 100 | < 100 |  |  |  |  |  |  | 100 to 1000 | < 100 |  | 
6 | Oc1cc(-c2cn[nH]c2)c(F)cc1-c1ccc(N2CC[C@@H](NC3CC3)C2)nn1 [Compound 106, 2-{6-[(3R)-3-(cyclopropylamino)pyrrolidin-1-yl]pyridazin-3-yl}-4-fluoro-5-(1H-pyrazol-4-yl)phenol] | 100 to 1000 | 100 to 1000 | 100 to 1000 | < 100 | < 100 | < 100 |  |  |  |  |  |  | 100 to 1000 | < 100 |  | 

Further lines, with some results ahead:

Row | IC50 (MYB mRNA; [2]) [nM] | IC50 (MYB mRNA; [3]) [nM] | IC50 (Target C mRNA; Homo sapiens) [nM] | IC50 (HTT mRNA; [4]) [nM] | IC50 (HTT mRNA; [5]) [nM] | IC50 (SMN2 mRNA; Homo sapiens) [nM] | IC50 (MYB mRNA; [7]) [nM] | IC50 (MYB mRNA; [8]) [nM] | IC50 (Target C mRNA) [nM] | IC50 (HTT mRNA; [9]) [nM] | IC50 (HTT mRNA; [10]) [nM] | IC50 (SMN2 mRNA) [nM] | SMILES | AC50 (MYB mRNA; [1]) [nM] | AC50 (HTT mRNA; [1]) [nM] | AC50 (MYB mRNA; [6]) [nM] | AC50 (HTT mRNA; [6]) [nM]
7 | < 100 | < 100 | < 100 | < 100 | < 100 | < 100 |  |  |  |  |  |  | CN(C1CCN(c2ccc(-c3cc(F)c(-c4cn[nH]c4)cc3O)nn2)C1)C(C)(C)C (stereo in doubt) [Compound 120, 2-{6-[(3R)-3-[tert-butyl(methyl)amino]pyrrolidin-1-yl]pyridazin-3-yl}-4-fluoro-5-(1H-pyrazol-4-yl)phenol] | < 100 | < 100 |  | 
8 | 100 to 1000 | 100 to 1000 | 100 to 1000 | 100 to 1000 | 100 to 1000 | < 100 |  |  |  |  |  |  | COc1cc(-c2ccc(-c3ccc(N4CC(F)[C@@H](NC(C)(C)C)C4)nn3)c(O)c2)cnn1 (stereo in doubt) [Compound 217, 2-{6-[(3S,4R)-3-(tert-butylamino)-4-fluoropyrrolidin-1-yl]pyridazin-3-yl}-5-(6-methoxypyridazin-4-yl)phenol] | 1000 to 10000 | 100 to 1000 |  | 
9 | < 100 | < 100 | < 100 | < 100 | < 100 | < 100 |  |  |  |  |  |  | CC(C)(C)N[C@H]1CCN(c2ccc(-c3ccc(-c4cn[nH]c4)cc3O)nn2)C1 [Compound 101, 2-{6-[(3S)-3-(tert-butylamino)pyrrolidin-1-yl]pyridazin-3-yl}-5-(1H-pyrazol-4-yl)phenol] | < 100 | < 100 |  | 
10 |  |  |  |  |  |  | > 10000 | > 10000 | > 10000 | > 10000 | > 10000 | 1000 to 10000 | Oc1cc(-c2cn[nH]c2)ccc1-c1ccc(N2CCC(NC3CC3)C2)nn1 (stereo not drawn) [Compound 102, 2-(6-(3-(cyclopropylamino)pyrrolidin-1-yl)pyridazin-3-yl)-5-(1H-pyrazol-4-yl)phenol] |  |  | > 10000 | > 10000
11 | < 100 | < 100 | < 100 | < 100 | < 100 | < 100 |  |  |  |  |  |  | CC1(NC2CCN(c3ccc(-c4ccc(-c5cn[nH]c5)cc4O)nn3)C2)CC1 (stereo not drawn) [Compound 107, 2-(6-{3-[(1-methylcyclopropyl)amino]pyrrolidin-1-yl}pyridazin-3-yl)-5-(1H-pyrazol-4-yl)phenol] | < 100 | < 100 |  | 
12 | 100 to 1000 | 100 to 1000 | 100 to 1000 | < 100 | < 100 | < 100 |  |  |  |  |  |  | Oc1cc(-c2cn[nH]c2)ccc1-c1ccc(N2CCC(NCC3CC3)C2)nn1 (stereo not drawn) [Compound 108, 2-(6-{3-[(cyclopropylmethyl)amino]pyrrolidin-1-yl}pyridazin-3-yl)-5-(1H-pyrazol-4-yl)phenol; methane] | 100 to 1000 | < 100 |  | 
